Reference: US8828983B2, “Macrocycles as factor XIa inhibitors” (Bristol-Myers Squibb Company, priority 2010, dated 2014)

Test system: not given
Test: not given
Conditions: from C=CCCCc1ccccc1-c1cn(COCC[Si](C)(C)C)c([C@H](CC=C)NC(=O)OC(C)(C)C)n1; rcm bond; 12-membered ring; Grubbs II (0.4 eq)/pTsOH.H2O; DCM; 0.97 mM; 40.0 °C

Compound `CC(C)(C)OC(=O)N[C@H]1CC=CCCCc2ccccc2-c2cn(COCC[Si](C)(C)C)c1n2` has a ring closure, isolated yield of 45.3%.

Same assay, conditions: from COC(=O)Nc1ccc(-c2cnc(C(Cc3ccc(F)c(CCC(=O)O)n3)NC(=O)OC(C)(C)C)o2)c(N)c1; amide bond; 14-membered ring; BOP/DMAP/DIEA; DCM/DMF; 1.1 mM; 25.0 °C; 16.0 h

`COC(=O)Nc1ccc2c(c1)NC(=O)CCc1nc(ccc1F)CC(NC(=O)OC(C)(C)C)C1=NC=C2O1` (centres unmarked) showed a ring closure, isolated yield of 23%.

Biological target: purified human Factor XIa (Homo sapiens (Human), UniProt P03951)
Test: Factor XIa assay (chromogenic substrate S-2366 hydrolysis, Ki)
Format: biochemical
Conditions: substrate S-2366, pH 7.4
Experimental: The effectiveness of compounds of the present invention as inhibitors of the coagulation Factors XIa, VIIa, IXa, Xa, XIIa, plasma kallikrein or thrombin, can be determined using a relevant purified serine protease, respectively, and an appropriate synthetic substrate. The rate of hydrolysis of the chromogenic or fluorogenic substrate by the relevant serine protease was measured both in the absence and presence of compounds of the present invention. […] A decrease in the rate of absorbance or fluorescence change in the presence of inhibitor is indicative of enzyme inhibition. Such methods are known to one skilled in the art. The results of this assay are expressed as the inhibitory constant, Ki.
Factor XIa determinations were made in 50 mM HEPES buffer at pH 7.4 containing 145 mM NaCl, 5 mM KCl, and 0.1% PEG 8000 (polyethylene glycol; JT Baker or Fisher Scientific). Determinations were made using purified human Factor XIa at a final concentration of 25-200 pM (Haematologic Technologies) and the synthetic substrate S-2366 (pyroGlu-Pro-Arg-pNA; CHROMOGENIX® or AnaSpec) at a concentration of 0.0002-0.001 M.
Values of Ki were determined by allowing the protease to react with the substrate in the presence of the inhibitor. Reactions were allowed to go for periods of 20-180 minutes (depending on the protease) and the velocities (rate of absorbance or fluorescence change versus time) were measured. The following relationships were used to calculate Ki values: (vo−vs)/vs=I/(Ki(1+S/Km)) for a competitive inhibitor with one binding site; or vs/vo=A+((B−A)/1+((IC50/(I)0))); and Ki=IC50/(1+S/Km) for a competitive inhibitor where: […]

Sequence of purified human Factor XIa (P03951 388-625): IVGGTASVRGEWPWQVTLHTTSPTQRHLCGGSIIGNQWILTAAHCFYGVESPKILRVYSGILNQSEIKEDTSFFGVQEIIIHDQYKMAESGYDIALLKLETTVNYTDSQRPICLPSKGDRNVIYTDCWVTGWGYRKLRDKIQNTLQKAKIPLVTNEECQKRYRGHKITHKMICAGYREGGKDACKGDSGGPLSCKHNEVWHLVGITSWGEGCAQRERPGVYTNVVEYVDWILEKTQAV
Sequence of purified human Factor XIa (P03951 19-387 partner): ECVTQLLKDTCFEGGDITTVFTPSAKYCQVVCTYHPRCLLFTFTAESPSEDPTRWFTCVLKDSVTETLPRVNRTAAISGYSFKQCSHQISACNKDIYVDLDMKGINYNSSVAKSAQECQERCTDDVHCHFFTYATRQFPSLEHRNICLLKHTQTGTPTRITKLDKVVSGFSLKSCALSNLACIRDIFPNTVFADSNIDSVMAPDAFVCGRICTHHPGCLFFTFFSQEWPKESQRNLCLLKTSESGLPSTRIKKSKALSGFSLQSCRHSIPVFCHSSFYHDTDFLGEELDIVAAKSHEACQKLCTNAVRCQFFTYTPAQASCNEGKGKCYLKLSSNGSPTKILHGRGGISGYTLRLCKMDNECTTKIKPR

Compared with `O=C(/C=C/c1cc(Cl)ccc1-n1cnnn1)N[C@H]1C/C=C/CCOc2ccccc2-c2c[nH]c1n2` [Example 1, (E)-3-(5-Chloro-2-tetrazol-1-yl-phenyl)-N-(E)-(S)-8-oxa-16,18-diaza-tricyclo[13.2.1.0^2,7]octadeca-1(17),2,4,6,11,15(18)-hexaen-14-yl-acrylamide], `COC(=O)Nc1ccc2c(c1)NC(=O)CCCC[C@H](NC(=O)/C=C/c1cc(Cl)ccc1-n1cnnn1)c1nc-2c[nH]1` [Example 10, {(S)-14-[(E)-3-(5-Chloro-2-tetrazol-1-yl-phenyl)-acryloylamino]-9-oxo-8,16,18-triaza-tricyclo[13.2.1.0^2,7]octadeca-1(17),2,4,6,15(18)-pentaen-5-yl}-carbamic acid methyl ester] is lower in Ki: 2980 nM for the first, less than 5 nM for the second. The second binds more tightly here.

First: COC(=O)Nc1ccc2c(c1)NC[C@@H]1CCN(C1)C(=O)C[C@H](NC(=O)/C=C/c1cc(Cl)ccc1-n1cnnn1)c1nc-2c[nH]1 [Example 86]
Second: COC(=O)Nc1ccc2c(c1)CCCCc1ccc(cc1)C[C@H](NC(=O)/C=C/c1cc(Cl)ccc1-n1cnnn1)c1nc-2c[nH]1 [Example 111]
The Ki of the first is 34-fold higher: 2390 nM for the first, 71 nM for the second. The second binds more tightly here.

First: COC(=O)Nc1ccc2c(c1)CCCCc1cccc(c1)C[C@H](NC(=O)/C=C/c1cc(Cl)ccc1-n1cnnn1)c1nc-2c(Cl)[nH]1 [Example 102]
Second: COC(=O)Nc1ccc2c(c1)NC(=O)CCc1nc(ccc1F)CC(NC(=O)/C=C/c1cc(Cl)ccc1-n1cnnn1)c1nc-2cn1C (centres unmarked) [III-33]
The Ki of the first is 13-fold lower: 8.16 nM for the first, 103 nM for the second.

Compared with `COC(=O)Nc1ccc2c(c1)NC(=O)CCc1nc(ccc1F)CC(NC(=O)/C=C/c1cc(Cl)ccc1C(C)=O)c1nc-2c[nH]1` (centres unmarked) [Example 140, Methyl N-{3-[(2E)-3-(2-acetyl-5-chlorophenyl)prop-2-enamido]-19-fluoro-15-oxo-5,14,22,23-tetraazatetracyclo[16.3.1.1^4,7.0^8,13]tricosa-1(22),4(23),6,8,10,12,18,20-octaen-11-yl}carbamate], `COC(=O)Nc1ccc2c(c1)NC(=O)CCc1nc(ccc1F)CC(NC(=O)c1c(F)cc(C)cc1F)c1nc-2c[nH]1` (centres unmarked) [Example 142, Methyl N-{3-[(2,6-difluoro-4-methylbenzene)amido]-19-fluoro-15-oxo-5,14,22,23-tetraazatetracyclo[16.3.1.1^4,7.0^8,13]tricosa-1(22),4(23),6,8,10,12,18,20-octaen-11-yl}carbamate] is higher in Ki: less than 5 nM for the first, 145 nM for the second.

Compound `COC(=O)Nc1ccc2c(c1)NC(=O)CCc1nc(ccc1F)CC(NC(=O)[C@H]1CC[C@H](C)CC1)c1nc-2c[nH]1` (some centres unmarked) [Example 143, Methyl N-{19-fluoro-3-[(4-methylcyclohexane)amido]-15-oxo-5,14,22,23-tetraazatetracyclo[16.3.1.1^4,7.0^8,13]tricosa-1(22),4(23),6,8,10,12,18,20-octaen-11-yl}carbamate] has a Ki of 1310 nM.
